Experiments:
[1] = system: actively sensitized guinea pigs; assay: Inhibition of antigen-induced immediate asthmatic response (airway resistance, Konzett-Rossler); assay type: in vivo, Hartley guinea pigs; conditions: Cavia porcellus, oral, 60 minutes prior to antigen-challenge, reduction of increase in airway resistance, read-out: Inhibition of Asthmatic response ED50: mg/kg orally
Protocol: Male Hartley outbred guinea pigs were sensitized by administering intraperitoneally physiological saline (0.5 ml) containing ovalbumin (1 mg, antigen) and 5×10^9 inactivated Bordetella pertussis dead cells (adjuvant). Eleven to thirteen days after the first sensitization, 0.05 ml of an ovalbumin solution (1 mg/ml) (ovalbumin is dissolved in physiological saline) was administered to the lateroabdominal region of each guinea pig intracutaneously. An establishment of sensitization was checked relying on cutaneous reaction. Only guinea pigs wherein significant reddening responses occurred 5 to 10 minutes later were employed in the next measurement test for airway resistance.
The guinea pigs (3 animals per group) actively sensitized in the above step (1) were employed to measure for their airway pressure according to Konzett-Rossler method (Arch. Exp. Path. Pharmakol., 195, 71 (1940)).
Thirteen days after the final sensitization, guinea pigs fasted overnight, and were on the next day anesthetized with a pentobarbital solution (30 mg/1.2 ml/kg, dissolved in physiological saline, intraperitoneal administration). After the guinea pigs were fixed in a supine position, their trachea was incised followed by insertion with one port of a 4-port cannula. Among the remaining 3 ports, 2 ports were connected to an artificial respirator (Model 683, Harvard). The animals were ventilated with 10 ml/kg of air per ventilation at a rate of 60 beats/min via the artificial respirator from the cannula. One port remainder was connected to a respiratory amplifier (AR-601G, Nihon Kohden, Japan) via an airflow resistance tube (TV-241T, Nihon Kohden, Japan) and a differential pressure transducer (TP-602T, Nihon Kohden, Japan) connected with a control box (RY-111S, Nihon Kohden, Japan). From a catheter inserted into a left carotid artery, blood pressures were monitored with a blood pressure measurement unit (AP641G, NEC Corp., Japan) via a blood pressure transducer (TP-300T, Nihon Kohden, Japan), and heart rates were recorded on a thermal recorder (WT-685G, Nihon Kohden, Japan), relying on blood pressure pulse waves after being led to a cardiograph unit (AT601G, Nihon Kohden, Japan).
After airway pressure became stable, an ovalbumin solution (1 mg/ml, dissolved in physiological saline) was administered at a dose of 1 ml/kg via a tube with which the right jugular vein of guinea pigs was cannulated.
Each test compound was suspended in 0.5% CMC-Na solution and administered orally with an oral sound at a dose of 0.03 to 20 mg/2 ml/kg 60 minutes prior to the antigen-challenge. Control groups received only 0.5% CMC-Na solution in an equivalent amount. The pentobarbital-anesthetization and tracheal incision were conducted 30 minutes prior to the antigen-challenge.
Each percent reduction of increase in airway resistance (each test compound-administered group versus control group) was calculated according to the equation given below. ED50 was obtained by Probit method.

[2] = target: T1, CYP2D6 (Homo sapiens, UniProt P10635); assay: Inhibition of drug-metabolizing enzyme CYP2D6 (CYP2D6/AMMC kit); assay type: in vitro ADME; conditions: CYP2D6-expressing microsomes, AMMC substrate, 37° C., 30 minutes; read-out: Inhibition of Drug-Metabolizing Enzymes (IC50; μM) CYP2D6
T1 construct: purchased BD Biosciences, NJ, USA; host or cells: CYP2D6-expressing system microsomes
T1 sequence (P10635 whole entry): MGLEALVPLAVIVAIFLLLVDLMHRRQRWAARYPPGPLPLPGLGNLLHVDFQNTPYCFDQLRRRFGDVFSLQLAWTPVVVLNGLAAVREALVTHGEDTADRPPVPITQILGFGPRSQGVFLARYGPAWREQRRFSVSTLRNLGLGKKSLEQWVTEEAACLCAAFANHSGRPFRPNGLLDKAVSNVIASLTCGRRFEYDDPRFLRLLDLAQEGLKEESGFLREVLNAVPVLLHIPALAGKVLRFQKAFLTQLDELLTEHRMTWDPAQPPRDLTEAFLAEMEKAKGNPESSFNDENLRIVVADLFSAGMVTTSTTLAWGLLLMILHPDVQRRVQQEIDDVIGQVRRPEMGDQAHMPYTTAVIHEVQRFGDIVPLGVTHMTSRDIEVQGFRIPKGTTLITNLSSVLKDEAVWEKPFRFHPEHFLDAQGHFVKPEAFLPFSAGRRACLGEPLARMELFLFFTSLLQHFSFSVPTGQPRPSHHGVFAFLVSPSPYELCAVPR
Protocol: The inhibitory effect on CYP2D6 and CYP3A4 was determined using High Throughput Inhibitor Screening Kits: CYP2D6/AMMC and CYP3A4/BFC (both from BD Biosciences, NJ, USA). Briefly, each of NADPH regenerating systems, cofactors, and test compounds was dispensed into 96-well plates, followed by addition of each of fluorescent substrates, AMMC (CYP2D6) or BFC (CYP3A4). To each well were added CYP2D6-expressing system microsomes or CYP3A4-expressing system microsomes, and the plates were incubated at 37° C. for 30 minutes, and then read for fluorescent signals (CYP2D6: ex=390 nm, em=460 nm; CYP3A4: ex=409 nm, em=538 nm wherein excitation wavelength: ex and emission wavelength: em). Thus, each inhibitory efficacy on enzymes CYP2D6 and CYP3A4 was determined. Roflumilast was used for the reference compound in this assay.

[3] = system: lung neutrophil infiltration; assay: Inhibition of lung neutrophil infiltration (LPS inhalation, BALF); assay type: in vivo, Hartley guinea-pigs; conditions: Cavia porcellus, guinea-pigs, oral, 1 hour before LPS inhalation, BALF neutrophils at 24 hours, read-out: Inhibition of Lung Neutrophil Infiltration ED50: mg/kg orally
Protocol: Hartley guinea-pigs were orally received a suspension of test compounds at a dose of 0.03 to 3 mg/2 mL/kg. One hour later, the animals were received 0.1 mg/mL lipopolylsaccharide (LPS) in a physiological saline via an inhalational route with a nebulizer for 30 minutes. Twenty-four hours after the LPS inhalation, BALF samples were collected, and neutrophils were counted.

[4] = system: ICR mice; assay: Toxicology study (1-week administration to mice); assay type: in vivo; conditions: oral, 100 or 300 mg/10 ml/kg, one week
Protocol: The Compound of the present invention (Example No. 9) was administered orally to ICR mice (5 animals per group) as a test compound. […] The test compound was suspended in 0.5% CMC-Na solution and given orally to the animal at a dose of 100 or 300 mg/10 ml/kg in a forced manner.

[5] = system: Beagle dogs; assay: Emetic action on dogs; assay type: in vivo; conditions: oral, 1 mg/kg
Protocol: Beagle dogs received a suspension of each test compound in 0.5% CMC-Na solution orally at a dose of 1 mg/2 mL/kg.

| Compound | ED50 [1] [mg/kg] | IC50 [2] [µM] | ED50 [3] [mg/kg] | Abnormality in other parameters [4] | Body weight gain [4] | Mortality [4] | Occurrence of emesis [5] |
| --- | --- | --- | --- | --- | --- | --- | --- |
| O=c1c2c(Cc3ccccc3)n[nH]c2c2cccnc2n1-c1ccccc1 [Example No. 9, 3-benzyl-5-phenyl-1H-pyrazolo[4,3-c][1,8]naphthyridin-4 (5H)-one] | 0.16 | > 10 | 0.12 | no abnormality was observed | No reduction of body weight gains was observed | None of the animals were died | no observation for emetic actions |
| O=c1c2c(Cc3ccc(F)cc3)n[nH]c2c2cccnc2n1-c1ccccc1 [Example No. 33, 3-(4-fluorobenzyl)-5-phenyl-1H-pyrazolo[4,3-c][1,8]naphthyridin-4 (5H)-one] | 0.33 | > 10 | 0.09 |  |  |  | no observation for emetic actions |

Reference: patent US7608716B2, “Pyrazolonaphthyridine derivative” (Aska Pharmaceutical Co., Ltd., priority 2002, dated 2009)
